According to PubChem BioAssay (NCI):
Where “and” joins values, the source holds several entries; their conditions need not be identical. Identical values can stand only once.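 In this assay, cells in 96-well plates receive the compound at five concentrations for 48 hours. Endpoints are linearly interpolated between the surrounding concentrations. GI50 marks 50% less growth. TGI denotes the concentration required for complete inhibition of growth.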

Key:
Test in all cases: NCI-60 cell line screen, 48 h
OVCAR-3 ovarian = test system: OVCAR-3 ovarian
786-0 renal = test system: 786-0 renal
K-562 leukemia = test system: K-562 leukemia
SR leukemia = test system: SR leukemia
NCI-H522 lung = test system: NCI-H522 lung
NCI-H23 lung = test system: NCI-H23 lung
NCI/ADR-RES ovarian = test system: NCI/ADR-RES ovarian
COLO 205 colon = test system: COLO 205 colon
A498 renal = test system: A498 renal
HOP-92 NSCLC = test system: HOP-92 NSCLC
OVCAR-8 ovarian = test system: OVCAR-8 ovarian
BT-549 breast = test system: BT-549 breast
MDA-MB-231 breast = test system: MDA-MB-231 breast
SNB-19 CNS = test system: SNB-19 CNS
HOP-62 NSCLC = test system: HOP-62 NSCLC
IGROV1 ovarian = test system: IGROV1 ovarian
KM12 colon = test system: KM12 colon
M14 melanoma = test system: M14 melanoma
OVCAR-4 ovarian = test system: OVCAR-4 ovarian
UACC-257 melanoma = test system: UACC-257 melanoma
SF-295 CNS = test system: SF-295 CNS
SW-620 colon = test system: SW-620 colon
RPMI-8226 leukemia = test system: RPMI-8226 leukemia
MCF7 breast = test system: MCF7 breast
ACHN renal = test system: ACHN renal
SK-MEL-2 melanoma = test system: SK-MEL-2 melanoma
HCC-2998 colon = test system: HCC-2998 colon
SF-539 CNS = test system: SF-539 CNS
LOX IMVI melanoma = test system: LOX IMVI melanoma
SK-OV-3 ovarian = test system: SK-OV-3 ovarian
TK-10 renal = test system: TK-10 renal
MOLT-4 leukemia = test system: MOLT-4 leukemia
SN12C renal = test system: SN12C renal
SF-268 CNS = test system: SF-268 CNS
RXF 393 renal = test system: RXF 393 renal
HL-60(TB) leukemia = test system: HL-60(TB) leukemia
CAKI-1 renal = test system: CAKI-1 renal
OVCAR-5 ovarian = test system: OVCAR-5 ovarian
UO-31 renal = test system: UO-31 renal
SK-MEL-28 melanoma = test system: SK-MEL-28 melanoma
EKVX NSCLC = test system: EKVX NSCLC
NCI-H460 lung = test system: NCI-H460 lung
UACC-62 melanoma = test system: UACC-62 melanoma
SK-MEL-5 melanoma = test system: SK-MEL-5 melanoma
DU-145 prostate = test system: DU-145 prostate
HCT-15 colon = test system: HCT-15 colon
NCI-H226 lung = test system: NCI-H226 lung
MALME-3M melanoma = test system: MALME-3M melanoma
T-47D breast = test system: T-47D breast
HT29 colon = test system: HT29 colon
PC-3 prostate = test system: PC-3 prostate
SNB-75 CNS = test system: SNB-75 CNS
HCT-116 colon = test system: HCT-116 colon
CCRF-CEM leukemia = test system: CCRF-CEM leukemia
U251 CNS = test system: U251 CNS
MDA-MB-435 = test system: MDA-MB-435
HS 578T breast = test system: HS 578T breast
A549 NSCLC = test system: A549 NSCLC

Q: What does the source list for NS(=O)(=O)c1ccc(N=Cc2c(O)[nH]c3ccc4ncsc4c23)cc1?
A: GI50 (OVCAR-3 ovarian): 0.189 µM and 0.756 µM; TGI (OVCAR-3 ovarian): > 6.36 µM and 3.42 µM; GI50 (786-0 renal): 1.02 µM and 3.67 µM; TGI (786-0 renal): > 25 µM and 18.8 µM; GI50 (K-562 leukemia): 1.27 µM and 2.19 µM; TGI (K-562 leukemia): > 25 µM; GI50 (SR leukemia): 0.213 µM and 0.518 µM; TGI (SR leukemia): > 5.71 µM and 2.11 µM; GI50 (NCI-H522 lung): 0.508 µM and 0.532 µM; TGI (NCI-H522 lung): 1.58 µM and 1.88 µM; GI50 (NCI-H23 lung): 1.11 µM and 3.98 µM; TGI (NCI-H23 lung): 7.24 µM and 15.7 µM; GI50 (NCI/ADR-RES ovarian): 3.5 µM and 5.42 µM; TGI (NCI/ADR-RES ovarian): > 25 µM; GI50 (COLO 205 colon): 1.36 µM and 3.84 µM; TGI (COLO 205 colon): 5.03 µM and 9.19 µM; GI50 (A498 renal): 3.69 µM and 6.71 µM; TGI (A498 renal): 9.95 µM and 14.7 µM; GI50 (HOP-92 NSCLC): 1.72 µM; TGI (HOP-92 NSCLC): > 7.33 µM; GI50 (OVCAR-8 ovarian): 0.75 µM and 1.73 µM; TGI (OVCAR-8 ovarian): > 25 µM; GI50 (BT-549 breast): 0.693 µM and 2.34 µM; TGI (BT-549 breast): 2.06 µM and 9.04 µM; GI50 (MDA-MB-231 breast): 1.06 µM and 5.66 µM; TGI (MDA-MB-231 breast): > 25 µM; GI50 (SNB-19 CNS): 0.885 µM and 2.16 µM; TGI (SNB-19 CNS): > 25 µM; GI50 (HOP-62 NSCLC): 0.887 µM and 3.49 µM; TGI (HOP-62 NSCLC): 4.17 µM and 15.1 µM; GI50 (IGROV1 ovarian): 6.53 µM and 8.83 µM; TGI (IGROV1 ovarian): > 25 µM; GI50 (KM12 colon): 0.566 µM and 1.97 µM; TGI (KM12 colon): 8.58 µM and 18.4 µM; GI50 (M14 melanoma): 2.08 µM and 4.14 µM; TGI (M14 melanoma): 6.99 µM and 9.39 µM; GI50 (OVCAR-4 ovarian): 0.821 µM and 1.87 µM; TGI (OVCAR-4 ovarian): 2.92 µM and 16.1 µM; GI50 (UACC-257 melanoma): 3.11 µM and 6.09 µM; TGI (UACC-257 melanoma): 19 µM and 16.6 µM; GI50 (SF-295 CNS): 4.02 µM and 7.28 µM; TGI (SF-295 CNS): > 23.2 µM; GI50 (SW-620 colon): 0.891 µM and 1.8 µM; TGI (SW-620 colon): > 21.9 µM; GI50 (RPMI-8226 leukemia): 5.6 µM and 7.17 µM; TGI (RPMI-8226 leukemia): > 21.2 µM; GI50 (MCF7 breast): 0.755 µM and 1.77 µM; TGI (MCF7 breast): > 24 µM; GI50 (ACHN renal): 2.2 µM and 5.31 µM; TGI (ACHN renal): > 25 µM; GI50 (SK-MEL-2 melanoma): 0.644 µM and 1.15 µM; TGI (SK-MEL-2 melanoma): 1.36 µM and 3.07 µM; GI50 (HCC-2998 colon): 0.751 µM and 1.41 µM; TGI (HCC-2998 colon): 3.87 µM and 7.05 µM; GI50 (SF-539 CNS): 0.626 µM and 1.08 µM; TGI (SF-539 CNS): 2 µM and 4.91 µM; GI50 (LOX IMVI melanoma): 0.85 µM and 2.13 µM; TGI (LOX IMVI melanoma): > 25 µM; GI50 (SK-OV-3 ovarian): 3.84 µM and 9.75 µM; TGI (SK-OV-3 ovarian): > 25 µM; GI50 (TK-10 renal): 4.2 µM and 7.65 µM; TGI (TK-10 renal): 17.1 µM and 19.1 µM; GI50 (MOLT-4 leukemia): 0.476 µM and 0.886 µM; TGI (MOLT-4 leukemia): 1.57 µM and 4.26 µM; GI50 (SN12C renal): 0.982 µM and 3.21 µM; TGI (SN12C renal): > 25 µM; GI50 (SF-268 CNS): 0.678 µM and 0.792 µM; TGI (SF-268 CNS): 2.28 µM and 2.72 µM; GI50 (RXF 393 renal): 0.856 µM and 2.12 µM; TGI (RXF 393 renal): 2.47 µM and 7.85 µM; GI50 (HL-60(TB) leukemia): 1.57 µM and 1.93 µM; TGI (HL-60(TB) leukemia): 4.1 µM and 4.79 µM; GI50 (CAKI-1 renal): 5.85 µM and 6.52 µM; TGI (CAKI-1 renal): > 25 µM; GI50 (OVCAR-5 ovarian): 2.91 µM and 7.56 µM; TGI (OVCAR-5 ovarian): > 25 µM; GI50 (UO-31 renal): 4.51 µM and 6.2 µM; TGI (UO-31 renal): > 21.3 µM; GI50 (SK-MEL-28 melanoma): 0.858 µM and 2.49 µM; TGI (SK-MEL-28 melanoma): 2.55 µM and 10.9 µM; GI50 (EKVX NSCLC): 7.91 µM and 8.52 µM; TGI (EKVX NSCLC): > 25 µM; GI50 (NCI-H460 lung): 0.764 µM and 5.92 µM; TGI (NCI-H460 lung): > 25 µM; GI50 (UACC-62 melanoma): 1.05 µM and 3.67 µM; TGI (UACC-62 melanoma): 4.71 µM and 9.09 µM; GI50 (SK-MEL-5 melanoma): 1.04 µM and 2.74 µM; TGI (SK-MEL-5 melanoma): > 10.5 µM and 15.3 µM; GI50 (DU-145 prostate): 0.394 µM and 3.03 µM; TGI (DU-145 prostate): > 25 µM; GI50 (HCT-15 colon): 7.16 µM and 7.13 µM; TGI (HCT-15 colon): > 25 µM and 24.5 µM; GI50 (NCI-H226 lung): 0.931 µM and 2.94 µM; TGI (NCI-H226 lung): 6.26 µM and 15.5 µM; GI50 (MALME-3M melanoma): 1.44 µM and 2.27 µM; TGI (MALME-3M melanoma): 10.7 µM and > 19 µM; GI50 (T-47D breast): 0.781 µM and 2.36 µM; TGI (T-47D breast): 2.16 µM and > 20 µM; GI50 (HT29 colon): 3.5 µM and 8.16 µM; TGI (HT29 colon): > 25 µM; GI50 (PC-3 prostate): 3.1 µM and 2.08 µM; TGI (PC-3 prostate): > 22.9 µM; GI50 (SNB-75 CNS): 0.857 µM and 3.64 µM; TGI (SNB-75 CNS): 2.61 µM and 10 µM; GI50 (HCT-116 colon): 0.845 µM and 1.78 µM; TGI (HCT-116 colon): > 25 µM; GI50 (CCRF-CEM leukemia): 0.793 µM and 0.699 µM; TGI (CCRF-CEM leukemia): > 25 µM; GI50 (U251 CNS): 0.715 µM and 1.63 µM; TGI (U251 CNS): > 8.07 µM; GI50 (MDA-MB-435): 2.44 µM and 3.76 µM; TGI (MDA-MB-435): > 19.5 µM and 18.4 µM; GI50 (HS 578T breast): 0.783 µM and 1.04 µM; TGI (HS 578T breast): > 7.17 µM; GI50 (A549 NSCLC): 5.02 µM and 9.11 µM; TGI (A549 NSCLC): > 25 µM
